Where two headings read alike, the source gives them in different places.

The subject of one test is U251 (glioblastoma). The test is described as follows: Proliferation EC50 on Matrigel vs SISgel. It counts as cell-based.
The test system of a further test is MDA-MB-435 cells. The test is described as follows: Western blot of protein levels after treatment. The class given is cell-based. The method, then: Protein content of selected proteins identified by reversed phase protein array (see supplementary materials) as being involved mechanistically in the response to DT320 was assayed by Western blot as described using the following antibodies. The following antibodies were purchased from Cell Signaling Technology (Beverly, MA) and diluted per manufacturer’s directions: Rabbit mAb Anti-Phospho-AKT (Ser473) (D9E) XP® #4060, Rabbit mAb anti-p38 MAPK (D13E1) XP® #8690, Mouse mAb anti-Phospho-SAPK/JNK (Thr183/Tyr185) (G9) #9255, Rabbit mAb anti-Phospho-CHK1 (Ser345) (133D3) #2348, Rabbit polyclonal anti-Phospho-CHK2 (Thr68) Antibody #2661, Rabbit polyclonal anti-BAX Antibody #2772, Rabbit polyclonal anti-Vinculin Antibody #4650, Mouse mAb anti-Cyclin D1 (DCS6) #2926, Rabbit mAb anti-Cyclin E2 (D52F9) b #3741, […], Mouse mAb anti-Cyclin B1 (V152) #4135, Rabbit mAb anti-cleaved PARP (Asp214) (D64E10) XP® #5625, Rabbit mAb anti-cleaved Caspase-3 (Asp175) (5A1E) #9654, Rabbit mAb anti-Nanog (D73G4), #4903; Rabbit mAb anti-Oct4 (C52G3) #2890; and Rabbit mAb anti-Sox2 (D6D9) #3579. Specificity of each antibody is illustrated on the company’s web page. For negative controls, pre-immune rabbit IgG was used. No signal was detected in the control IgG samples. No intensities or contrast were modified, but the appropriate bands were cut out using PhotoShop to prepare composite gel images.
To elucidate the mechanism of DT310 and DT320, cell cycle analysis and Western blotting was performed. The proteins for Western blot were selected from preliminary results using reverse phase protein array (RPPA) for DT320 and DT321 treated MDA-MB-435 and T24 cells. […] Proteins within these clusters showing the largest differences in protein expression and that were related to known anticancer drug action were confirmed by Western blot. Docetaxel was used as a positive control because it is known to induce a cell cycle arrest and apoptosis signature.
For orientation: Immunoblotting shows a protein as a band on a membrane.

As to `O=S(=O)([O-])c1cc(O)c2c(O)c(N=Nc3cccc4ccccc34)c(S(=O)(=O)[O-])cc2c1.[Na+].[Na+]` [DT320, 4,5-Dihydroxy-3-(1-naphthalenylazo)-2,7-naphthalenedisulfonic acid disodium salt], the Ratio in the test on U251 (glioblastoma) (Matrigel/SISgel EC50, U251) was 1.5. For the same compound, the concentration for a half-maximal effect (EC50) (commonly the midpoint of the concentration-response curve) in the test on U251 (glioblastoma) (U251 on Matrigel, read-out: EC50 Matrigel) was found to be 95 µM; with U251 (glioblastoma) (U251 on SISgel, read-out: EC50 SISgel), 64.6 µM. Besides, in the test with MDA-MB-435 cells, the “Cyclin D1 (CCND1) expression” value is “induced”. Besides, the “cleaved caspase 3” value with MDA-MB-435 cells (48 h) is listed as “increased signal”.

These data come from article PMC4434572, “Identification of novel drugs to target dormant micrometastases” (BMC Cancer, 2015).
